{
  "source": "patent US20140234365A1",
  "about": "“2-HYDROXYHIPPURIC ACID ANALOGS, AND METHODS FOR THEIR SYNTHESIS AND USE” (ALERE SAN DIEGO, INC., priority 2011, published 2014)",
  "tested_on": "anti-2-Hydroxyhippuric acid antibody",
  "experiment": "Competitive immunoassay for detecting 2-hydroxyhippuric acid (microfluidic device, fluorescent latex particle conjugate)",
  "format": "binding",
  "details": "analyte diluted into pools of human plasma, fluorescence read in TRIAGE meter after >15 minutes",
  "source_text": "A competitive assay for detecting 2-hydroxyhippuric acid in […] was developed using microfluidic devices manufactured at Alere San Diego, Inc. essentially as described in WO98/43739, WO98/08606, WO98/21563, and WO93/24231. An anti-2-Hydroxyhippuric acid antibody was developed by phage display using a hapten-KLH conjugate as immunogen. This antibody was conjugated to a 0.13 μm maleimide-functionalized latex particle via a free cysteine residue on the antibody. The detection reagent consisted of a 0.50 μm fluorescence energy transfer latex particle (essentially as described in U.S. Pat. Nos. 5,763,189, 6,238,931, and 6,251,687; and International Publication WO95/08772) made according to Example 6. […] (comprising 0.22% solids) of the antibody-particle conjugate was spotted onto the diagnostic lane of the microfluidic device, and 170 nL (comprising 0.4% solids) of the 2-Hydroxyhippuric acid-particle conjugate was applied to the device reaction chamber. Analytes were dissolved in deionized water, then diluted into pools of human plasma to achieve the desired final concentration. 210 μL of sample was applied to the device sample addition zone and allowed to run >15 minutes prior to reading the fluorescence in the TRIAGE (Biosite Incorporated) meter. A fluorescent signal was obtained by integrating the fluorescence as a function of distance from the device origin.",
  "data": [
    {"smiles": "O=C(O)CNC(=O)c1ccccc1O", "note": "[2-Hydroxyhippuric acid, 2-hydroxyhippuric acid]", "values": [
      {"measurement": "concentration at which the assay detected the analyte", "value": 10, "unit": "µg/mL"}
    ]}
  ]
}
